The results in this text go back to patent publication US20090286883A1, “TREATMENT OF HEART FAILURE AND ASSOCIATED CONDITIONS BY ADMINISTRATION OF MONOAMINE OXIDASE INHIBITORS” (Universita' degli Studi di Padova (University of Padua), priority 2008, published 2009).

One experiment has as its system HL-1 cardiomyocytes. Briefly: Oxidative stress (mitochondrial ROS production) upon H2O2 or arachidonic acid. It counts as cell-based. The settings on record: for Levels of oxidative stress, Arachidonic acid (% increase vs control): 5 μM arachidonic acid, no treatment 145.6 ± 3.8; for Levels of oxidative stress, Arachidonic acid (% increase vs control) / Levels of oxidative stress, H2O2 (% increase vs control): clorgyline 1 μM; for Levels of oxidative stress, H2O2 (% increase vs control): 100 μM H2O2, no treatment 156.2 ± 4.3; for rise in ROS production / protection: H2O2 or arachidonic acid stimulated HL-1 cardiomyocytes, cell pretreatment. On the procedure:
In vivo, mitochondria and the respiratory chain, in particular, are considered a major intracellular ROS source^15. MAOs are located in the outer membrane of these organelles and MAO-A can increase oxidative burden. When HL-1 cardiomyocytes were incubated with 100 μM H2O2 or 5 μM arachidonic acid, a rise in ROS production at mitochondrial level was observed (Table 6).

Experiment [1] has as its system neonatal rat cardiomyocytes. Put plainly: MAO-A and BNP gene expression after NE in absence or presence of clorgyline. It counts as cell-based. An excerpt: This process may contribute to the development of […]
The test system of a further experiment is myocytes. Briefly: EMT gene expression upon stimulation with tyramine. It counts as cell-based. Conditions: tyramine 10 μM.
The test system of another experiment is cardiomyocytes. Briefly: NFAT4 gene expression upon stimulation with tyramine in absence or presence of clorgyline. It counts as cell-based.
In a further experiment the test system is caspase-3. Put plainly: Cleaved caspase-3 levels after 6 weeks of TAC. It counts as in vivo. Conditions: 6 weeks TAC mice, FIG. 1. An excerpt: Levels of cleaved caspase-3 were markedly elevated after 6 weeks in TAC mice vs shams.
Experiment [2] has as its system TAC-induced pressure overload. Briefly: Transverse aortic constriction (TAC) pressure overload in mice, cardiac morphology and in vivo ventricular function. The settings on record: for EF (ejection fraction) / FS (fractional shortening) / Heart rate / IVS (interventricular septum) / LV mass/BW / LVEDD (left ventricular end-diastolic dimension) / LVESD (left ventricular end-systolic dimension) / LVPW (left ventricular posterior wall): clorgyline 1 mg/kg/day.

The structures appear in SMILES notation. Several values for one entry are separate records, joined by “and”; a condition that tells them apart may be missing. Identical values can stand only once.

For the compound `C#CCN(C)[C@H](C)Cc1ccccc1` [deprenyl], in the experiment on HL-1 cardiomyocytes, the “Levels of oxidative stress, Arachidonic acid (% increase vs control)” value came to 142.4 ± 0.3 % increase vs control; the “Levels of oxidative stress, H2O2 (% increase vs control)” value is recorded as 150.7 ± 4.9 % increase vs control; the “rise in ROS production / protection” value is “No protection”.
Turning to `NC[C@H](O)c1ccc(O)c(O)c1` [NE, norepinephrine], the “MAO-A gene expression and hypertrophy (BNP expression)” value in experiment [1] (NE 10 μM for 24 hrs) is “up-regulation of MAO-A gene expression and induction of hypertrophy”. The “MAO-A (vs GAPDH) gene expression” value in experiment [1] (NE 10 μM, 24 hrs, control 0.58 ± 0.05) came out at 1.85 ± 0.04. Moreover, the “BNP (vs GAPDH) gene expression” value in experiment [1] (NE 10 μM, 24 hrs, control 1 ± 0) stood at 8.9 ± 1.4.
For `NCCc1ccc(O)cc1` [tyramine], the “increase in EMT gene expression” value in the experiment on myocytes is 2 fold. The same compound registered an EMT/GAPDH gene expression with myocytes (control 0.5 ± 0.04) of 0.97 ± 0.2. Besides, the “increase of NFAT4 expression” value with cardiomyocytes (tyramine incubation of cardiomyocytes) came to 2 fold. Moreover, the “NFAT4 gene expression (normalized to GAPDH)” value in the experiment with cardiomyocytes (tyramine, −clorgyline, control 0.24 ± 0.03) is listed as 0.38 ± 0.01.
With `C#CCN(C)CCCOc1ccc(Cl)cc1Cl` [clorgyline], in the experiment on caspase-3, the “caspase-3 activation (cleaved caspase-3)” value is “prevented caspase-3 activation”. For the same compound, the “BNP (vs GAPDH) gene expression” value in experiment [1] (NE 10 μM 24 hrs in presence of clorgyline, NE alone 8.9 ± 1.4) is listed as 4.85 ± 0.9 ^#. The “NFAT4 gene expression (normalized to GAPDH)” value with cardiomyocytes (Control (no tyramine), +clorgyline) is on record as 0.23 ± 0.02. In addition, in the experiment on cardiomyocytes (Tyramine, +clorgyline (preincubation)), the “NFAT4 gene expression (normalized to GAPDH)” value is on record as 0.32 ± 0.02. The “effect on tyramine-induced increase of NFAT4 expression” value in the experiment on cardiomyocytes (preincubation with clorgyline prior to tyramine treatment) was “reduced this effect significantly”. Besides, in the experiment on HL-1 cardiomyocytes, the “Levels of oxidative stress, Arachidonic acid (% increase vs control)” value was determined as 98.3 ± 1.3 % increase vs control; the “Levels of oxidative stress, H2O2 (% increase vs control)” value worked out at 122.6 ± 3 % increase vs control; the “rise in ROS production / protection” value is reported as “completely prevented, or reduced”. In experiment [2] (TAC 3 weeks), the “EF (ejection fraction)” value is on record as 91.6 ± 0.4^C %, the “FS (fractional shortening)” value was 56.8 ± 1.9^C %, the Heart rate is 702 ± 12 bpm and the “IVS (interventricular septum)” value was 1.3 ± 0.02^B mm. In experiment [2] (TAC 3 weeks), the “LV mass/BW” value was 6.4 ± 0.3^B mg/g, the “LVEDD (left ventricular end-diastolic dimension)” value came out at 2.9 ± 0.06 mm, the “LVESD (left ventricular end-systolic dimension)” value worked out at 1.2 ± 0.06 mm and the “LVPW (left ventricular posterior wall)” value was 1.2 ± 0.03^B mm. In experiment [2] (TAC 6 weeks), the Heart rate was determined as 670 ± 13.7 bpm; the “IVS (interventricular septum)” value is reported as 1.4 ± 0.03^B mm; the “LV mass/BW” value is 7.2 ± 0.4^B, D mg/g; the “LVEDD (left ventricular end-diastolic dimension)” value is 3.0 ± 0.08^D mm. For the same compound, in experiment [2] (TAC 6 weeks), the “LVESD (left ventricular end-systolic dimension)” value is 1.2 ± 0.04^D mm and the “LVPW (left ventricular posterior wall)” value is on record as 1.3 ± 0.03^B, D mm. Moreover, in experiment [2] (TAC 6 weeks, listed as CLO), the “EF (ejection fraction)” value was 93.6±0.4% and 94.3 ± 0.4^D %; the “FS (fractional shortening)” value is 61±0.8% and 61.6 ± 0.9^D %. Further, the “levels of hypertrophy (LV mass, LVEDD, LVESD)” value in experiment [2] (TAC, vs saline-treated TAC mice) is listed as “reduced”. Also, the wall thickness entry in experiment [2] (after 3 weeks of TAC, compared to sham operated animals) is on record as “increased”. Also, in experiment [2] (after 3 weeks of TAC, vs saline-treated TAC mice), the LV function result is listed as “significantly better”. Besides, the LV function entry in experiment [2] (at 6 weeks of TAC, vs saline-treated TAC mice) is “improved”.
